Test results published in patent US8217085B2 (priority 2009, dated 2012).
Values joined by “and” are separate entries in the source; they are usually repeats but may differ in a detail not shown here. Equal values may be shown once. Read-outs that look alike come from different tables or passages of the source.

Experiments:
[1] = test system: ATCC strain 43300 Staphylococcus aureus
Method: Additional antibiotic was added every 24 hours.
USP<51> Antimicrobial Effectiveness protocol was used as the template experimental paradigm. […] All concentrations were plated out to the 10^−7 dilutionsto ascertain cfu/ml. […] Additional antibiotic was added at the initial concentration every 24 hours.
ATCC strain 43300 Staphylococcus aureus was streaked out for isolations. An isolated colony was chosen, streaked again and incubated. Isolate was chosen and then diluted to a McFarland standard of one. The estimated value was then taken to inoculate tubes containing growth media and 12, 30 or 60 μg/ml oxacillin with approximately 10^5 cfu/ml. These tubes were incubated and plated for counting cfu.
Material was calculated on a 10 ml volume. Sterile oxacillin was added to each experimental condition to a final concentration of 12, 30 or 60 μg/ml antibiotic.
All tubes were then inoculated with a dilution of the selected ATCC strain 43300 Staphylococcus aureus clone giving a final level of colony forming units of 3.3×10^5/ml (log=5.52). The tubes were incubated at 25° C. and mixed periodically. Antibiotic was re-inoculated every 24 hours at the initial concentration to maintain pressure on the organism. Plating was done at 24, 48, 72, and 120 hours. Each condition was plated by diluting 1 ml of growth material into 9 ml of MLB diluent broth. […] This mixture was serial diluted down to 10^−7 with 1 ml placed in triplicate in a sterile petri dish at each dilution point. 20 mls of TSA was added to each dilution, swirled and allowed to solidify. All dilutions were placed in a 35° C. incubator for 24 to 72 hours. Bacterial colonies on each plate were counted and the average taken then changed into log format. Any cfu/ml observed greater than 3.3×10^5 (log=5.5) were recorded as >3.3×10^5.

[2] = room temperature; cited from earlier work
[3] = test system: ATCC strain 43300 Staphylococcus aureus; format: cell-based
Excerpt: (§1) No colonies were observed, indicating total kill.
as §1

[4] = test system: ATCC strain 43300 Staphylococcus aureus; conditions: 24 hours
Method: All concentrations were plated out to the 10^−7 dilutions to ascertain cfu/ml.
ATCC strain 43300 Staphylococcus aureus was streaked out for isolations and 25 clones were picked and diluted to a McFarland standard of one. The estimated value was then taken to inoculate tubes containing growth media and 12, 30 or 60 μg/ml methicillin or oxacillin with around 10^−7 cfu/tube.
Material was calculated on a 10 ml volume. Sterile oxacillin or methicillin was added to each experimental condition to a final concentration of 12, 30 or 60 μg/ml antibiotic.
All tubes were then inoculated with a dilution of the selected ATCC strain 43300 Staphylococcus aureus clone giving a final level of colony forming units of 9.4×10^7/ml (log=7.97). The tubes were incubated at 25° C. and mixed periodically. […] Plating was done at 24 hours. Each condition was plated by diluting 1 ml of growth material into 9 ml of MLB diluent broth. This mixture was serial diluted down to 10^−7, and 1 ml placed in a sterile petri dish at each dilution point. 20 mls of TSA was added to each dilution, swirled and allowed to solidify. All dilutions were placed in a 35° C. incubator for 24 hours. Bacterial colonies on each plate were counted and colony counts changed into log format. A positive and negative control was ascertained.

[5] = 12% MSM, 12 μg/ml oxacillin, 24 hours
[6] = 12% MSM, 12 μg/ml oxacillin, 48 hours
[7] = 12% MSM, 30 μg/ml oxacillin, 24 hours
[8] = 12% MSM, 60 μg/ml oxacillin, 24 hours
[9] = 13% MSM, 12 μg/ml oxacillin, 24 hours
[10] = 13% MSM, 12 μg/ml oxacillin, 48 hours
[11] = 13% MSM, 30 μg/ml oxacillin, 24 hours
[12] = 13% MSM, 60 μg/ml oxacillin, 24 hours
[13] = 14% MSM, 12 μg/ml oxacillin, 24 hours
[14] = 14% MSM, 12 μg/ml oxacillin, 48 hours
[15] = 14% MSM, 12 μg/ml oxacillin, 72 hours
[16] = 14% MSM, 30 μg/ml oxacillin, 24 hours
[17] = 14% MSM, 60 μg/ml oxacillin, 24 hours
[18] = 15% MSM, 12 μg/ml oxacillin, 24 hours
[19] = 15% MSM, 12 μg/ml oxacillin, 48 hours
[20] = 15% MSM, 30 μg/ml oxacillin, 24 hours
[21] = 15% MSM, 60 μg/ml oxacillin, 24 hours
[22] = 16% MSM, 12 μg/ml oxacillin, 24 hours
[23] = 16% MSM, 12 μg/ml oxacillin, 48 hours
[24] = 16% MSM, 30 μg/ml oxacillin, 24 hours
[25] = 16% MSM, 60 μg/ml oxacillin, 24 hours

## CS(C)(=O)=O [MSM, methylsulfonylmethane]
[1]; 11% MSM, 60 μg/ml oxacillin, 24 hours
  survival: 6.7 × 10^2 cfu/ml and 6.9 × 10^2 cfu/ml
[1]; 11% MSM, 60 μg/ml oxacillin, 48 hours
  Average Log: 2.1 Log
[1]; [5]
  Average Log: 3.85 Log
  survival: 7.0 × 10^3 cfu/ml and 7.3 × 10^3 cfu/ml
[1]; [6]
  Average Log: 2.8 Log
  survival: 3.6 × 10^2 cfu/ml and 4.0 × 10^2 cfu/ml and 4.2 × 10^2 cfu/ml
[1]; 12% MSM, 12 μg/ml oxacillin, 72 hours
  Average Log: 3.1 Log
[1]; [7]
  Average Log: 3.59 Log
  survival: 3.9 × 10^3 cfu/ml
[1]; 12% MSM, 30 μg/ml oxacillin, 48 hours
  Average Log: 2.6 Log
[1]; 12% MSM, 30 μg/ml oxacillin, 72 hours
  Average Log: 2.6 Log
[1]; [8]
  Average Log: 2.86 Log
  survival: 7.3 × 10^2 cfu/ml and 7.1 × 10^2 cfu/ml and 7.5 × 10^2 cfu/ml
[1]; 12% MSM, 60 μg/ml oxacillin, 48 hours
  Average Log: 2.0 Log
[1]; 12% MSM, 60 μg/ml oxacillin, 72 hours
  Average Log: 2.4 Log
[1]; 12%-16% MSM, 12 μg/ml oxacillin, 72 hours
  log reduction in the number of cfu/ml: 1 log
[1]; [9]
  Average Log: 3.95 Log
  survival: 9.0 × 10^3 cfu/ml and 8.7 × 10^3 cfu/ml and 9.2 × 10^3 cfu/ml
[1]; [10]
  Average Log: 2.8 Log
  survival: 6.8 × 10^2 cfu/ml and 5.8 × 10^2 cfu/ml
[1]; 13% MSM, 12 μg/ml oxacillin, 72 hours
  Average Log: 2.7 Log
[1]; [11]
  Average Log: 3.62 Log
  survival: 4.4 × 10^3 cfu/ml and 4.1 × 10^3 cfu/ml and 4.2 × 10^3 cfu/ml
[1]; 13% MSM, 30 μg/ml oxacillin, 48 hours
  Average Log: 2.5 Log
[1]; 13% MSM, 30 μg/ml oxacillin, 72 hours
  Average Log: 1.8 Log
[1]; [12]
  Average Log: 2.80 Log
  survival: 6.3 × 10^2 cfu/ml and 6.0 × 10^2 cfu/ml
[1]; 13% MSM, 60 μg/ml oxacillin, 48 hours
  Average Log: 1.7 Log
[1]; 13% MSM, 60 μg/ml oxacillin, 72 hours
  Average Log: 1 Log
[1]; [13]
  Average Log: 4.00 Log
  survival: 1.00 × 10^4 cfu/ml and 1.02 × 10^4 cfu/ml and 1.01 × 10^4 cfu/ml
[1]; [14]
  Average Log: 1.0 Log
  log reduction in the number of cfu/ml: 4.5 log
  survival: 1.0 × 10^1 cfu/ml and 1.2 × 10^1 cfu/ml and 1.1 × 10^1 cfu/ml
[1]; [15]
  Average Log: 2.0 Log
  log reduction in the number of cfu/ml: 4.5 log
[1]; [16]
  Average Log: 3.78 Log
  survival: 6.1 × 10^3 cfu/ml and 6.0 × 10^3 cfu/ml
[1]; 14% MSM, 30 μg/ml oxacillin, 48 hours
  Average Log: 2.5 Log
[1]; 14% MSM, 30 μg/ml oxacillin, 72 hours
  Average Log: 2.2 Log
[1]; [17]
  Average Log: 2.03 Log
  log reduction in the number of cfu/ml: 3.5 log
  survival: 1.8 × 10^2 cfu/ml and 1.7 × 10^2 cfu/ml
[1]; 14% MSM, 60 μg/ml oxacillin, 48 hours
  Average Log: 2.2 Log
[1]; 14% MSM, 60 μg/ml oxacillin, 72 hours
  Average Log: 1.5 Log
[1]; [18]
  Average Log: 4.11 Log
  survival: 1.35 × 10^4 cfu/ml and 1.30 × 10^4 cfu/ml and 1.29 × 10^4 cfu/ml
[1]; [19]
  Average Log: 3.7 Log
  survival: 5.0 × 10^3 cfu/ml and 4.5 × 10^3 cfu/ml and 4.6 × 10^3 cfu/ml
[1]; 15% MSM, 12 μg/ml oxacillin, 72 hours
  Average Log: 2.3 Log
[1]; [20]
  Average Log: 3.94 Log
  survival: 8.7 × 10^3 cfu/ml and 8.9 × 10^3 cfu/ml and 8.8 × 10^3 cfu/ml
[1]; 15% MSM, 30 μg/ml oxacillin, 48 hours
  Average Log: 2.8 Log
[1]; 15% MSM, 30 μg/ml oxacillin, 72 hours
  Average Log: 2.4 Log
[1]; [21]
  Average Log: 3.81 Log
  survival: 6.6 × 10^3 cfu/ml and 6.2 × 10^3 cfu/ml and 6.4 × 10^3 cfu/ml
[1]; 15% MSM, 60 μg/ml oxacillin, 48 hours
  Average Log: 2.1 Log
[1]; [22]
  Average Log: 3.88 Log
  survival: 7.6 × 10^3 cfu/ml and 7.4 × 10^3 cfu/ml
[1]; [23]
  Average Log: 3.7 Log
  survival: 4.2 × 10^3 cfu/ml and 5.0 × 10^3 cfu/ml and 4.3 × 10^3 cfu/ml
[1]; 16% MSM, 12 μg/ml oxacillin, 72 hours
  Average Log: 2.1 Log
[1]; [24]
  Average Log: 3.91 Log
  survival: 8.3 × 10^3 cfu/ml and 8.0 × 10^3 cfu/ml
[1]; 16% MSM, 30 μg/ml oxacillin, 48 hours
  Average Log: 2.6 Log
[1]; 16% MSM, 30 μg/ml oxacillin, 72 hours
  Average Log: 1.9 Log
[1]; [25]
  Average Log: 3.83 Log
  survival: 6.9 × 10^3 cfu/ml
[1]; 16% MSM, 60 μg/ml oxacillin, 48 hours
  Average Log: 1.9 Log
[1]; 16% MSM, 60 μg/ml oxacillin, 72 hours
  Average Log: 1.8 Log
[2]
  water solubility: ≥ 20%
[3]; 11% MSM, 60 μg/ml oxacillin, 96 hours
  recovery of MRSA after enrichment: total kill
[3]; 13% MSM, 60 μg/ml oxacillin, 120 hours
  recovery of MRSA after enrichment: total kill
[3]; 14% MSM, 60 μg/ml oxacillin, 96 hours
  recovery of MRSA after enrichment: total kill
[3]; 15% MSM, 30 μg/ml oxacillin, 120 hours
  recovery of MRSA after enrichment: total kill
[3]; 15% MSM, 60 μg/ml oxacillin, 72 hours
  recovery of MRSA after enrichment: total kill
[3]; 16% MSM, 60 μg/ml oxacillin, 120 hours
  recovery of MRSA after enrichment: total kill
[4]; 5% MSM with antibiotic (12, 30 or 60 μg/ml oxacillin or methicillin)
  average log reduction in cfu/ml: 2.2 log
[4]; 16% MSM with antibiotic (barring methicillin 60 μg/ml outlier)
  average log reduction in cfu/ml: 3.3 log
